Results published in patent US11685732B2, “MYST family histone acetyltransferase inhibitors” (Epizyme, Inc., priority 2017, dated 2023).
Like-named read-outs stand apart in the source and are kept apart here.

Assays:
KAT-5 = KAT-5 (Homo sapiens (Human), UniProt Q92993); experiment: KAT-5 biochemical inhibition assay (SAMDI mass spectrometry)
Outline: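 KAT-5 at 9 nM final was preincubated with serially diluted compound (2% DMSO) in 50 mM Tris pH 8.0 with 1 mM DTT. Reaction ran with 1 μM peptide substrate and 0.5 μM acetyl-CoA for 90 min at 25° C, was quenched with 0.5% formic acid, and was read by SAMDI-TOF mass spectrometry.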

KAT-6A = KAT-6A (Homo sapiens (Human), UniProt Q92794); experiment: KAT-6A biochemical inhibition assay (SAMDI mass spectrometry)
Outline: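 Enzyme (12.5 nM final) pre-incubated with serially diluted compounds (2% DMSO final) in 50 mM Tris pH 8.0 with Tween20, gelatin and 1 mM DTT. Reaction started with 1 μM peptide substrate and 1 μM acetyl-CoA, run 90 min at 25 °C, quenched with 0.5% formic acid, read by SAMDI-TOF mass spectrometry; IC50 derived.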

KAT-7 = KAT-7 (Homo sapiens (Human), UniProt O95251); experiment: KAT-7 biochemical inhibition assay (SAMDI mass spectrometry)
Outline: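 KAT-7 (6 nM) was pre-incubated with serially diluted compound (2% DMSO) in Tris pH 8.0 with DTT. Reaction with 1 μM peptide and 2 μM acetyl-CoA ran 120 min at 25 °C and was stopped with 0.5% formic acid. Acetylation was read by SAMDI-TOF mass spectrometry to give IC50.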

KAT-8 = KAT-8 (Homo sapiens (Human), UniProt Q9H7Z6); experiment: KAT-8 biochemical inhibition assay (SAMDI mass spectrometry)
Outline: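 Compounds in 2% DMSO pre-incubated with 12.5 nM enzyme in 50 mM Tris pH 8.0 with Tween20, gelatin and 1 mM DTT. Then 1 μM peptide and 5 μM acetyl-CoA were added, 90 min at 25 °C; formic acid stop and SAMDI-TOF mass spectrometry for IC50.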

Chain of KAT-7 (O95251 other isoform, or with tags, fused parts or gaps): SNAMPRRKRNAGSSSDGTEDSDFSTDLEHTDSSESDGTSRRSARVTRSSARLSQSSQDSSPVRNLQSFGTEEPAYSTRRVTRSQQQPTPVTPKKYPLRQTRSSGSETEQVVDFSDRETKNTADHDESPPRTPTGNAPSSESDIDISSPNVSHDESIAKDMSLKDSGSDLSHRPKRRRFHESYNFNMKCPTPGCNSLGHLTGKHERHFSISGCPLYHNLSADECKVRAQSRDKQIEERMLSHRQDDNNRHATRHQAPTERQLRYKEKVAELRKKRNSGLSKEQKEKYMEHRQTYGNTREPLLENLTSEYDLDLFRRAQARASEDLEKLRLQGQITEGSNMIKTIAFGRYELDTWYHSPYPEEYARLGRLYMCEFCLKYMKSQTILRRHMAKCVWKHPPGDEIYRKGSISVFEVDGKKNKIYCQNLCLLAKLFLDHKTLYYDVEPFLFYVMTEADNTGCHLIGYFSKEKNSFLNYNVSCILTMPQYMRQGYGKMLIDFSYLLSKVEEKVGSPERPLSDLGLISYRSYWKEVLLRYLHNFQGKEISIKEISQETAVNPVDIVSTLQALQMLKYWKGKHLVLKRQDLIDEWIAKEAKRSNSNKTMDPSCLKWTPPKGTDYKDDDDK
Chain of KAT-5 (Q92993 other isoform, or with tags, fused parts or gaps): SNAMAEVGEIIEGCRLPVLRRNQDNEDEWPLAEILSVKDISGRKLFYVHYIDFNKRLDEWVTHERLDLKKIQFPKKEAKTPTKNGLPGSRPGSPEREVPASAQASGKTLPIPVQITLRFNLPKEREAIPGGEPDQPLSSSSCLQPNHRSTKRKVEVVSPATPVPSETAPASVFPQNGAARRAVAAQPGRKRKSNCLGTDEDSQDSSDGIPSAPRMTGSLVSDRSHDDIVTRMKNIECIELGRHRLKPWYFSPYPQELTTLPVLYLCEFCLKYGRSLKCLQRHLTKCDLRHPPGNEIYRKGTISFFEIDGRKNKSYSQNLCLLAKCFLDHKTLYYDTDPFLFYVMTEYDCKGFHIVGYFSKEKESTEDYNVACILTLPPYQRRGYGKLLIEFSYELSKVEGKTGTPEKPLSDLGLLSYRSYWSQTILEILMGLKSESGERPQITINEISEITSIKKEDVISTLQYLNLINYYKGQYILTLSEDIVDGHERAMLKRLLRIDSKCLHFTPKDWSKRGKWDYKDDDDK
Chain of KAT-6A (Q92794 other isoform, or with tags, fused parts or gaps): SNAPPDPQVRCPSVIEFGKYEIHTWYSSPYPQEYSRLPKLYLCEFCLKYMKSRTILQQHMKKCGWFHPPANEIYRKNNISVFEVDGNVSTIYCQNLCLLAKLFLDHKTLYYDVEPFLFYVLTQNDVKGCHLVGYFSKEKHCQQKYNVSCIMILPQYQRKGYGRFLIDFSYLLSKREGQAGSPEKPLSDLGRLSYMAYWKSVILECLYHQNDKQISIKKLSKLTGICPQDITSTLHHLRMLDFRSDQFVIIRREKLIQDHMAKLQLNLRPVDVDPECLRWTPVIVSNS
Chain of KAT-8 (Q9H7Z6 other isoform, or with tags, fused parts or gaps): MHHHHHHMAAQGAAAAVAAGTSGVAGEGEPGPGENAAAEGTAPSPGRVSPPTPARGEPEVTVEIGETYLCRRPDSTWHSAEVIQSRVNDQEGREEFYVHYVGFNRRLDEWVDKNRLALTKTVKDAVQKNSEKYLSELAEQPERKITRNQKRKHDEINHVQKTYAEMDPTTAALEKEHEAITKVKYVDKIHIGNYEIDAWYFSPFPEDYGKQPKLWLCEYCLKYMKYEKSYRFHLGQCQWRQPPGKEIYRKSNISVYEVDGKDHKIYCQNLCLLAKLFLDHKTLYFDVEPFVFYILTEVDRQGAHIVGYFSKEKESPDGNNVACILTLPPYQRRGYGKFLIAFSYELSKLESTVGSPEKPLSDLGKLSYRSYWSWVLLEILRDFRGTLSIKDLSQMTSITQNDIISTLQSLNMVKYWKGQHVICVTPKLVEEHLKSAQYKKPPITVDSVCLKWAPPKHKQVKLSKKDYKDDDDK

SMILES	IC50 (KAT-5)	IC50 (KAT-6A)	IC50 (KAT-7)	IC50 (KAT-8)	IC50 (KAT-5; Table 6, comparative compounds)	IC50 (KAT-6A; Table 6, comparative compounds)	IC50 (KAT-7; Table 6, comparative compounds)	IC50 (KAT-8; Table 6, comparative compounds)
CC(=O)Nc1ccc(S(=O)(=O)NNC(=O)c2cc(-c3cn(C)cn3)cc(Cl)c2F)cc1 [Compound I-379]	10 to 50 µM	10 to 50 µM	< 10 µM	10 to 50 µM				
COCCc1c(-c2cc(Cl)c(F)c(C(=O)NNS(=O)(=O)CC3CCOCC3)c2)cnn1C [Compound I-373]	10 to 50 µM	10 to 50 µM	10 to 50 µM	10 to 50 µM				
CN1CCN([C@H]2CC[C@@H](CS(=O)(=O)NNC(=O)c3cc(-c4cn(C)cn4)cc(Cl)c3F)CC2)C1=O [Compound I-310]	< 10 µM	< 10 µM	< 10 µM	10 to 50 µM				
Cn1cnc(-c2cc(Cl)c(F)c(C(=O)NNS(=O)(=O)Cc3cccnc3)c2)c1 [Compound I-282]	< 10 µM	10 to 50 µM	< 10 µM	10 to 50 µM				
Cn1cnc(-c2cc(Cl)c(F)c(C(=O)NNS(=O)(=O)c3cccnc3)c2)c1 [Compound I-301]	10 to 50 µM	< 10 µM	< 10 µM	10 to 50 µM				
Cn1cnc(-c2cc(Cl)c(F)c(C(=O)NNS(=O)(=O)c3cccc(OCc4ccccc4)n3)c2)c1 [Compound I-375]	< 10 µM	< 10 µM	< 10 µM	10 to 50 µM				
O=C(NNS(=O)(=O)CC1CCCCC1)c1cc(-c2cn(Cc3ncco3)cn2)cc(Cl)c1F [Compound I-219]	< 10 µM	< 10 µM	< 10 µM	10 to 50 µM				
CC1CCN(C(=O)OC(C)(C)C)CC1CS(=O)(=O)NNC(=O)c1cc(-c2cn(C)cn2)cc(Cl)c1F (centres unmarked) [Compound I-303]	< 10 µM	10 to 50 µM	< 10 µM	10 to 50 µM				
Cc1cc(-c2ccccc2)cc(C(=O)NNS(=O)(=O)CC2CCCN(C(=O)OC(C)(C)C)C2)c1F (single isomer, unassigned) [B, reference compound]					≤ 10 µM	≤ 10 µM	≤ 10 µM	50 to 100 µM
Cn1cnc(-c2cc(Cl)c(F)c(C(=O)NNS(=O)(=O)c3cnn(CCO)c3)c2)c1 [Compound I-362]	10 to 50 µM	10 to 50 µM	< 10 µM	10 to 50 µM				
COCCc1nc(-c2cc(Cl)c(F)c(C(=O)NNS(=O)(=O)C3CCOCC3)c2)cn1C [Compound I-119]	10 to 50 µM	10 to 50 µM	10 to 50 µM	10 to 50 µM				
Cc1cc(-c2cnn(C(C)C)c2)cc(C(=O)NNS(=O)(=O)C2CCCCC2)c1F [Compound I-155]	> 100 µM	> 100 µM	10 to 50 µM	> 100 µM				
Cn1cnc(-c2cc(Cl)c(Cl)c(C(=O)NNS(=O)(=O)CC3CCCCC3)c2)c1 [Compound I-144]	> 100 µM	> 100 µM	< 10 µM	> 100 µM				
Cc1ncc(-c2cc(Cl)c(F)c(C(=O)NNS(=O)(=O)CC3CCCCC3)c2)n1C [Compound I-29]	10 to 50 µM	> 100 µM	50 to 100 µM	> 100 µM				
COCC(=O)N1CCCC(CS(=O)(=O)NNC(=O)c2cc(-c3cn(C)cn3)cc(C)c2F)C1 (centres unmarked) [Compound I-141]	< 10 µM	< 10 µM	< 10 µM	> 100 µM				
CNC(=O)Cn1nc(-c2cc(Cl)c(F)c(C(=O)NNS(=O)(=O)CC3CCCCC3)c2)cc1C [Compound I-311]	< 10 µM	10 to 50 µM	< 10 µM	10 to 50 µM				
Cc1ccnc(-c2cc(Cl)c(F)c(C(=O)NNS(=O)(=O)CC3CCOCC3)c2)c1 [Compound I-17]	< 10 µM	< 10 µM	< 10 µM	> 100 µM				
CC(=O)Nc1ccccc1S(=O)(=O)NNC(=O)c1cc(-c2cn(C)cn2)cc(Cl)c1F [Compound I-370]	10 to 50 µM	< 10 µM	< 10 µM	10 to 50 µM				
Cc1cc(-c2cn(C(C)C)cn2)cc(C(=O)NNS(=O)(=O)C2CCCCC2)c1F [Compound I-139]	10 to 50 µM	> 100 µM	< 10 µM	> 100 µM				

Other lines, results leading:

IC50 (KAT-5)	IC50 (KAT-6A)	IC50 (KAT-7)	IC50 (KAT-8)	IC50 (KAT-5; Table 6, comparative compounds)	IC50 (KAT-6A; Table 6, comparative compounds)	IC50 (KAT-7; Table 6, comparative compounds)	IC50 (KAT-8; Table 6, comparative compounds)	SMILES
10 to 50 µM	10 to 50 µM	< 10 µM	10 to 50 µM					CC(=O)N[C@H]1C[C@H](CS(=O)(=O)NNC(=O)c2cc(-c3cn(C)cn3)cc(Cl)c2F)C1 [Compound I-125]
10 to 50 µM	10 to 50 µM	< 10 µM	10 to 50 µM					Cn1cnc(-c2cc(Cl)c(F)c(C(=O)NNS(=O)(=O)CC3CCN(C(=O)CO)C3)c2)c1 (centres unmarked) [Compound I-89]
10 to 50 µM	50 to 100 µM	< 10 µM	> 100 µM					Cn1cnc(-c2cc(Cl)c(F)c(C(=O)NNS(=O)(=O)CC3CCCNC3)c2)c1 (centres unmarked) [Compound I-7]
< 10 µM	10 to 50 µM	< 10 µM	10 to 50 µM					CCNC(=O)N1CCC(C)C(CS(=O)(=O)NNC(=O)c2cc(-c3cn(C)cn3)cc(Cl)c2F)C1 (centres unmarked) [Compound I-352]
> 100 µM	10 to 50 µM	< 10 µM	> 100 µM					Cn1cnc(-c2cc(Cl)c(F)c(C(=O)NNS(C)(=O)=O)c2)c1 [Compound I-22]
< 10 µM	< 10 µM	< 10 µM	10 to 50 µM					CC(C)NC(=O)N1CCCC(CS(=O)(=O)NNC(=O)c2cc(-c3cn(C)cn3)cc(Cl)c2F)C1 (centres unmarked) [Compound I-187]
< 10 µM	< 10 µM	< 10 µM	10 to 50 µM					CN1CCN([C@H]2C[C@@H](CS(=O)(=O)NNC(=O)c3cc(-c4cn(C)cn4)cc(Cl)c3F)C2)C1=O [Compound I-325]
< 10 µM	< 10 µM	< 10 µM	10 to 50 µM					COCC(=O)N1CCCC(CS(=O)(=O)NNC(=O)c2cc(-c3cn(C)cn3)cc(Cl)c2F)C1 (centres unmarked) [Compound I-35]
< 10 µM	< 10 µM	< 10 µM	> 100 µM					Cn1cnc(-c2cc(Cl)c(F)c(C(=O)NNS(=O)(=O)CC3CCOCC3)c2)c1 [Compound I-1]
< 10 µM	< 10 µM	< 10 µM	10 to 50 µM					CCC(=O)NC1CCCC(CS(=O)(=O)NNC(=O)c2cc(-c3cn(C)cn3)cc(Cl)c2F)C1 (centres unmarked) [Compound I-199]
< 10 µM	< 10 µM	< 10 µM	10 to 50 µM					Cn1cnc(-c2cc(Cl)c(F)c(C(=O)NNS(=O)(=O)CC3CCC(NC(N)=O)C3)c2)c1 (centres unmarked) [Compound I-340]
10 to 50 µM	10 to 50 µM	< 10 µM	10 to 50 µM					Cn1cnc(-c2cc(Cl)c(F)c(C(=O)NNS(=O)(=O)C[C@H]3C[C@@H](N)C3)c2)c1 [Compound I-113]
< 10 µM	< 10 µM	< 10 µM	10 to 50 µM					Cn1cnc(-c2cc(Cl)c(F)c(C(=O)NNS(=O)(=O)CC3CCCC(NC(=O)c4cccnc4)C3)c2)c1 (centres unmarked) [Compound I-236]
< 10 µM	< 10 µM	< 10 µM	10 to 50 µM					Cn1cnc(-c2cc(Cl)c(F)c(C(=O)NNS(=O)(=O)CC3CCCCC3)c2)c1 [Compound I-51, N′-(3-chloro-2-fluoro-5-(1-methyl-1H-imidazol-4-yl)benzoyl)-1-cyclohexyl methanesulfonohydrazide]
< 10 µM	< 10 µM	< 10 µM	10 to 50 µM					COc1ccc(CNC(=O)N[C@H]2C[C@H](CS(=O)(=O)NNC(=O)c3cc(-c4cn(C)cn4)cc(Cl)c3F)C2)cc1 [Compound I-174]
10 to 50 µM	10 to 50 µM	< 10 µM	10 to 50 µM					Cn1cnc(-c2cc(Cl)c(F)c(C(=O)NNS(=O)(=O)CC3CCC(N)C3)c2)c1 (centres unmarked) [Compound I-339]
10 to 50 µM	10 to 50 µM	< 10 µM	10 to 50 µM					CNC(=O)N1CC(CS(=O)(=O)NNC(=O)c2cc(-c3cn(C)cn3)cc(Cl)c2F)C1 [Compound I-160]
< 10 µM	< 10 µM	< 10 µM	10 to 50 µM					Cn1cnc(-c2cc(Cl)c(F)c(C(=O)NNS(=O)(=O)C[C@H]3CC[C@H](NC(=O)Cc4ccccc4)CC3)c2)c1 [Compound I-229]
< 10 µM	< 10 µM	< 10 µM	10 to 50 µM					CCNC(=O)N(C)[C@H]1CC[C@H](CS(=O)(=O)NNC(=O)c2cc(-c3cn(C)cn3)cc(Cl)c2F)CC1 [Compound I-338]
< 10 µM	< 10 µM	< 10 µM	10 to 50 µM					Cn1cnc(-c2cc(Cl)c(F)c(C(=O)NNS(=O)(=O)C[C@H]3C[C@@H](NC(=O)OC(C)(C)C)C3)c2)c1 [Compound I-114]
< 10 µM	10 to 50 µM	< 10 µM	10 to 50 µM					Cn1cnc(-c2cc(Cl)c(F)c(C(=O)NNS(=O)(=O)CC3CCN(C(=O)NCCO)C3)c2)c1 (centres unmarked) [Compound I-228]
< 10 µM	< 10 µM	< 10 µM	10 to 50 µM					COc1ccc(CN(C)C(=O)N[C@H]2C[C@H](CS(=O)(=O)NNC(=O)c3cc(-c4cn(C)cn4)cc(Cl)c3F)C2)cc1 [Compound I-175]
